Data from patent US20260015350A1, “AZAQUINAZOLINE PAN-KRAS INHIBITORS” (Mirati Therapeutics, Inc., priority 2022, published 2026).

Experiments:
KRas^WT = molecular target: T1, KRas^WT (Homo sapiens, UniProt P01116); assay: KRas binding assay (TR-FRET tracer displacement), KRas WT; conditions: single point, 10 nM compound, TR-FRET
T1 construct: Biotinylated KRas (corresponding to amino acids 1-169, produced at Accelegan Inc.); biotin (biotinylated); purchased Accelegan Inc

KRas^G12A = molecular target: T2, KRas^G12A (Homo sapiens, UniProt P01116, G12A); assay: KRas binding assay (TR-FRET tracer displacement), KRas G12A; conditions: single point, 10 nM compound, TR-FRET
T2 construct: Biotinylated KRas (corresponding to amino acids 1-169, produced at Accelegan Inc.); biotin (biotinylated); purchased Accelegan Inc

KRas^G12C = molecular target: T3, KRas^G12C (Homo sapiens, UniProt P01116, G12C); assay: KRas binding assay (TR-FRET tracer displacement), KRas G12C; conditions: single point, 10 nM compound, TR-FRET
T3 construct: Biotinylated KRas (corresponding to amino acids 1-169, produced at Accelegan Inc.); biotin (biotinylated); purchased Accelegan Inc

KRas^G12D = molecular target: T4, KRas^G12D (Homo sapiens, UniProt P01116, G12D); assay: KRas binding assay (TR-FRET tracer displacement), KRas G12D
T4 construct: Biotinylated KRas (corresponding to amino acids 1-169, produced at Accelegan Inc.); biotin (biotinylated); purchased Accelegan Inc

KRas^G12R = molecular target: T5, KRas^G12R (Homo sapiens, UniProt P01116, G12R); assay: KRas binding assay (TR-FRET tracer displacement), KRas G12R
T5 construct: Biotinylated KRas (corresponding to amino acids 1-169, produced at Accelegan Inc.); biotin (biotinylated); purchased Accelegan Inc

KRas^G12S = molecular target: T6, KRas^G12S (Homo sapiens, UniProt P01116, G12S); assay: KRas binding assay (TR-FRET tracer displacement), KRas G12S; conditions: single point, 10 nM compound, TR-FRET
T6 construct: Biotinylated KRas (corresponding to amino acids 1-169, produced at Accelegan Inc.); biotin (biotinylated); purchased Accelegan Inc

KRas^G12V = molecular target: T7, KRas^G12V (Homo sapiens, UniProt P01116, G12V); assay: KRas binding assay (TR-FRET tracer displacement), KRas G12V
T7 construct: Biotinylated KRas (corresponding to amino acids 1-169, produced at Accelegan Inc.); biotin (biotinylated); purchased Accelegan Inc

KRas^G13D = molecular target: T8, KRas^G13D (Homo sapiens, UniProt P01116, G13D); assay: KRas binding assay (TR-FRET tracer displacement), KRas G13D; conditions: single point, 10 nM compound, TR-FRET
T8 construct: Biotinylated KRas (corresponding to amino acids 1-169, produced at Accelegan Inc.); biotin (biotinylated); purchased Accelegan Inc

KRas^Q61H = molecular target: T9, KRas^Q61H (Homo sapiens, UniProt P01116, Q61H); assay: KRas binding assay (TR-FRET tracer displacement), KRas Q61H; conditions: single point, 10 nM compound, TR-FRET
T9 construct: Biotinylated KRas (corresponding to amino acids 1-169, produced at Accelegan Inc.); biotin (biotinylated); purchased Accelegan Inc

[1] = tested on: KRas-mediated phosphorylation of ERK in MKN1 cells; assay: Inhibition of KRas-mediated phosphorylation of ERK (Cisbio HTRF pERK), MKN1 cells; format: cell-based; conditions: Homo sapiens, MKN-1
In short: (§1)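 Overnight culture at 37° C./5% CO2 in RPMI containing 10% FBS, seeded 6,000 cells per well, preceded the assay. A covered 4-hour incubation at room temperature followed, then HTRF signal for phosphorylated ERK was measured.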

[2] = tested on: KRas-mediated phosphorylation of ERK in PSN1 cells; assay: Inhibition of KRas-mediated phosphorylation of ERK (Cisbio HTRF pERK), PSN1 cells; format: cell-based; conditions: Homo sapiens
In short: as §1

[3] = tested on: KRas-mediated phosphorylation of ERK in AsPC-1 cells; assay: Inhibition of KRas-mediated phosphorylation of ERK (Cisbio HTRF pERK), AsPC-1 cells; format: cell-based; conditions: Homo sapiens, ASPC1, AsPC-1 cells; HTRF pERK
In short: (§2)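 Using 6,000 cells per well, compounds are applied for 3 hrs and cells then lysed at 4° C with shaking for 40 mins. Phospho-ERK is measured by HTRF after 2 hrs of lysate incubation with the d2/Cryptate antibody mixture.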

[4] = tested on: KRas-mediated phosphorylation of ERK in H727 cells; assay: Inhibition of KRas-mediated phosphorylation of ERK (Cisbio HTRF pERK), H727 cells; format: cell-based; conditions: Homo sapiens, NCI-H727, H727 cells; HTRF pERK
In short: as §2

[5] = tested on: KRas-mediated phosphorylation of ERK in A549 cells; assay: Inhibition of KRas-mediated phosphorylation of ERK (Cisbio HTRF pERK), A549 cells; format: cell-based; conditions: Homo sapiens; for inhibition at 0.1 µM: A549, 3 h, single point, 100 nM compound, 3 hrs; for IC50: HTRF pERK
In short: (§3)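 Min control wells contained 0.2 uM Trametinib, while test compounds ran as 10 doses (3-fold, top 10 uM; 0.8% DMSO final) on cells for 3 hrs. After 40 mins lysis at 4° C, lysates were probed with HTRF antibodies for 2 hrs at room temperature.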

[6] = tested on: KRas-mediated phosphorylation of ERK in H460 cells; assay: Inhibition of KRas-mediated phosphorylation of ERK (Cisbio HTRF pERK), H460 cells; format: cell-based; conditions: Homo sapiens; for IC50: NCI-H460, HTRF pERK
In short: as §2

[7] = tested on: KRas-mediated phosphorylation of ERK in H358 cells; assay: Inhibition of KRas-mediated phosphorylation of ERK (Cisbio HTRF pERK), H358 cells; format: cell-based; conditions: Homo sapiens; for inhibition at 0.1 µM: NCI-H358, 3 h, single point, 100 nM compound, 3 hrs
In short: as §2

[8] = tested on: KRas-mediated phosphorylation of ERK in HCT116 cells; assay: Inhibition of KRas-mediated phosphorylation of ERK (Cisbio HTRF pERK), HCT116 cells; format: cell-based; conditions: Homo sapiens; for IC50: HCT-116, HTRF pERK
In short: as §3

T1 sequence (P01116 1-169 isoform P01116-2): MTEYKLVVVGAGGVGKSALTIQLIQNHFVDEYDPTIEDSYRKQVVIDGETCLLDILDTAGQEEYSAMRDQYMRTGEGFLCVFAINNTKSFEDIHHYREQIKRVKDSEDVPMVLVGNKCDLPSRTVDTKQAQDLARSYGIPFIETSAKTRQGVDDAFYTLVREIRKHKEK
T7 sequence (P01116 1-169 isoform P01116-2 G12V): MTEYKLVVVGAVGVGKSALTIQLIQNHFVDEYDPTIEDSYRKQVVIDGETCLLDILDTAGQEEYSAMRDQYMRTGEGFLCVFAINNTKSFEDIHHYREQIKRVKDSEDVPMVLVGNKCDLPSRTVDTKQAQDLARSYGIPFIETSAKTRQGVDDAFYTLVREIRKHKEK
T9 sequence (P01116 1-169 isoform P01116-2 Q61H): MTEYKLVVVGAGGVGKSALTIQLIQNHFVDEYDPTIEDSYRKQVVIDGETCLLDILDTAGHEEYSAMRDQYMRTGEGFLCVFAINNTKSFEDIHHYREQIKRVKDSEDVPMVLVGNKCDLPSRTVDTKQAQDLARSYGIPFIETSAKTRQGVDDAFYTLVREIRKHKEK
T6 sequence (P01116 1-169 isoform P01116-2 G12S): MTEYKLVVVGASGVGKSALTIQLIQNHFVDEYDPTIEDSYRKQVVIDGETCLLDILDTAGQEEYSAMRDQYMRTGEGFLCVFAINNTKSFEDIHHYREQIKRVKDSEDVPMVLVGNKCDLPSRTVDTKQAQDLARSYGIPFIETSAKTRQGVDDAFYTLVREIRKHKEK
T3 sequence (P01116 1-169 isoform P01116-2 G12C): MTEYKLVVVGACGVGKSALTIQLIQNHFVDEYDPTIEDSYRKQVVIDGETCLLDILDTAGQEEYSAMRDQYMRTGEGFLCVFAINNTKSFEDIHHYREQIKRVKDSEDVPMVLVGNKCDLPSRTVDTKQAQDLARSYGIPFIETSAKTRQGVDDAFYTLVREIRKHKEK
T8 sequence (P01116 1-169 isoform P01116-2 G13D): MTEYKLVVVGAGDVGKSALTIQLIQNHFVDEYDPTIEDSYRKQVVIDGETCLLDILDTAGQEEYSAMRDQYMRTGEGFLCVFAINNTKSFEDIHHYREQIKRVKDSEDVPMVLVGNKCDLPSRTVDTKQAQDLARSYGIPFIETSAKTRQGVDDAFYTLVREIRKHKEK
T4 sequence (P01116 1-169 isoform P01116-2 G12D): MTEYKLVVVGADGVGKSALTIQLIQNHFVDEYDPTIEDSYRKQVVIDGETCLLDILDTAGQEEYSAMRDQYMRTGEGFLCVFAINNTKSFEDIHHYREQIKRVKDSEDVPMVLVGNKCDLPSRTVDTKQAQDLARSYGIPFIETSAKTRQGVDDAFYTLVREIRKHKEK
T2 sequence (P01116 1-169 isoform P01116-2 G12A): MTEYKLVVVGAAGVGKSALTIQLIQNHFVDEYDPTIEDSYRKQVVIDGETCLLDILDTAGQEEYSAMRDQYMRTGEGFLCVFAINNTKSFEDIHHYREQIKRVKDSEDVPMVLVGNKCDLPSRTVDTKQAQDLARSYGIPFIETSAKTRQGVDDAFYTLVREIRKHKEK
T5 sequence (P01116 1-169 isoform P01116-2 G12R): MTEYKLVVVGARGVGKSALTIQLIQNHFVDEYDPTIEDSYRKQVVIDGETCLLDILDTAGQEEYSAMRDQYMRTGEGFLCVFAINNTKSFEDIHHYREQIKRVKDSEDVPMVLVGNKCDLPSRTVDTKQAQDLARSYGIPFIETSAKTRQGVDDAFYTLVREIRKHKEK

SMILES | inhibition at 0.01 µM (KRas^WT) [%] | inhibition at 0.01 µM (KRas^G12A) [%] | inhibition at 0.01 µM (KRas^G12C) [%] | IC50 (KRas^G12D) [nM] | IC50 (KRas^G12R) [nM] | inhibition at 0.01 µM (KRas^G12S) [%] | IC50 (KRas^G12V) [nM] | inhibition at 0.01 µM (KRas^G13D) [%] | inhibition at 0.01 µM (KRas^Q61H) [%] | IC50 [1] [nM] | IC50 [2] [nM] | IC50 [3] [nM] | IC50 [4] [nM] | inhibition at 0.1 µM [5] [%] | IC50 [6] [nM] | inhibition at 0.1 µM [7] [%] | IC50 [5] [nM] | IC50 [8] [nM] | other results
CCc1c(F)ccc2cc(O)cc(-c3ncc4c(N5CCCCC(C#N)C5)nc(OC[C@@]56CCCN5C[C@H](F)C6)nc4c3F)c12 (stereo partly drawn) [Example 547, 1-(7-(8-ethyl-7-fluoro-3-hydroxynaphthalen-1-yl)-8-fluoro-2-(((2R,7aS)-2-fluorohexahydro-1H-pyrrolizin-7a-yl)methoxy)pyrido[4,3-d]pyrimidin-4-yl)azepane-3-carbonitrile] | 68 | 49 | 56 | 4 | 10 | 58 | 7 | 76 | 70 | 16 | 7520 | 49 | 263 | 33 | 51 | 20 |  |  | 
CCc1c(F)ccc2cc(O)cc(-c3ncc4c(N5CCC[C@@]6(CCO6)C5)nc(OCC5(CN(C)C)CC5)nc4c3F)c12 [Example 700, (R)-4-(2-((1-((dimethylamino)methyl)cyclopropyl)methoxy)-8-fluoro-4-(1-oxa-6-azaspiro[3.5]nonan-6-yl)pyrido[4,3-d]pyrimidin-7-yl)-5-ethyl-6-fluoronaphthalen-2-ol] | 91 | 83 | 97 |  |  | 93 |  | 96 | 96 | 4 | 1320 | 412 | 948 | 83 | 348 | 103 | 468 | 784 | inhibition at 0.1 µM ([6]; NCI-H460, 3 h, single point, 100 nM compound, 3 hrs): 96%; inhibition at 0.1 µM ([8]; HCT-116, 3 h, single point, 100 nM compound, 3 hrs): 86%; IC50 ([7]; NCI-H358, HTRF pERK): 209 nM
CCc1c(F)ccc2cc(O)cc(-c3ncc4c(N5CCC[C@]6(C5)C[C@H](O)C6)nc(OC[C@@]56CCCN5[C@H](COC(=O)N(C)C)CC6)nc4c3F)c12 [Example 712, ((3S,7aS)-7a-(((7-(8-ethyl-7-fluoro-3-hydroxynaphthalen-1-yl)-8-fluoro-4-((2R,4r)-2-hydroxy-6-azaspiro[3.5]nonan-6-yl)pyrido[4,3-d]pyrimidin-2-yl)oxy)methyl)hexahydro-1H-pyrrolizin-3-yl)methyl dimethylcarbamate] | 86 | 88 | 94 | 2 | < 2 | 90 | < 2 | 90 | 90 | 12 | 2710 | 15 | 30 | 52 | 22 | 95 |  |  | 
CCc1c(F)ccc2cc(O)cc(-c3ncc4c(N5CCC[C@]6(C5)C[C@@H](O)C6)nc(OC[C@@]56CCCN5[C@H](COC(=O)N(C)C)CC6)nc4c3F)c12 [Example 713, ((3S,7aS)-7a-(((7-(8-ethyl-7-fluoro-3-hydroxynaphthalen-1-yl)-8-fluoro-4-((2S,4s)-2-hydroxy-6-azaspiro[3.5]nonan-6-yl)pyrido[4,3-d]pyrimidin-2-yl)oxy)methyl)hexahydro-1H-pyrrolizin-3-yl)methyl dimethylcarbamate] | 66 | 74 | 81 | 3 | 4 | 76 | 2 | 67 | 69 | 22 | 3580 | 73 | 59 | 25 | 102 | 60 |  |  | 
CCc1c(F)ccc2cc(O)cc(-c3ncc4c(N5CCC[C@@](C)(O)C5)nc(OC[C@@]56CCCN5[C@H](COC(=O)NC(C)C)CC6)nc4c3F)c12 [Example 718, ((3S,7aS)-7a-(((7-(8-ethyl-7-fluoro-3-hydroxynaphthalen-1-yl)-8-fluoro-4-((R)-3-hydroxy-3-methylpiperidin-1-yl)pyrido[4,3-d]pyrimidin-2-yl)oxy)methyl)hexahydro-1H-pyrrolizin-3-yl)methyl isopropylcarbamate] | 94 | 94 | 96 | < 2 | < 2 | 94 | < 2 | 95 | 96 | 2 | 1100 | 17 | 43 |  | 29 |  | 37 | 58 | 
CCc1c(F)ccc2cc(O)cc(-c3ncc4c(N5CCC[C@@](C)(O)C5)nc(OC[C@@]56CCCN5[C@H](COC(=O)N5CCCC5)CC6)nc4c3F)c12 [Example 719, ((3S,7aS)-7a-(((7-(8-ethyl-7-fluoro-3-hydroxynaphthalen-1-yl)-8-fluoro-4-((R)-3-hydroxy-3-methylpiperidin-1-yl)pyrido[4,3-d]pyrimidin-2-yl)oxy)methyl)hexahydro-1H-pyrrolizin-3-yl)methyl pyrrolidine-1-carboxylate] | 96 | 95 | 97 | < 2 | < 2 | 97 | < 2 | 98 | 98 | 1 | 518 | 7 | 23 |  | 8 |  | 7 | 23 | 
CCc1c(F)ccc2cc(O)cc(-c3ncc4c(N5CCC[C@@](C)(O)C5)nc(OC[C@@]56CCCN5[C@H](COC(=O)N5CCCCC5)CC6)nc4c3F)c12 [Example 721, ((3S,7aS)-7a-(((7-(8-ethyl-7-fluoro-3-hydroxynaphthalen-1-yl)-8-fluoro-4-((R)-3-hydroxy-3-methylpiperidin-1-yl)pyrido[4,3-d]pyrimidin-2-yl)oxy)methyl)hexahydro-1H-pyrrolizin-3-yl)methyl piperidine-1-carboxylate] | 89 | 90 | 92 | < 2 | < 2 | 90 | < 2 | 93 | 92 | 2 | 956 | 15 | 28 |  | 12 |  | 19 | 48 | 
CCc1cccc2cc3[nH]ncc3c(-c3ncc4c(N5C[C@@H]6C[C@H](C5)[C@H](O)C6)nc(OC[C@@]56CCCN5C[C@H](F)C6)nc4c3F)c12 [Example 767, (1R,5R,6R)-3-(7-(5-ethyl-1H-benzo[f]indazol-4-yl)-8-fluoro-2-(((2R,7aS)-2-fluorohexahydro-1H-pyrrolizin-7a-yl)methoxy)pyrido[4,3-d]pyrimidin-4-yl)-3-azabicyclo[3.2.1]octan-6-ol] | 48 | 54 | 58 | 17 | 3 | 66 | 5 | 55 | 48 | 32 | > 10000 | 193 | 87 |  | 64 |  | 76 | 216 | 
